Measurements from patent US20220354791A1, “MESOPOROUS POLYMERIC PARTICULATE MATERIAL” (Aston University, priority 2019, published 2022).

Test: Dissolution testing of IBU-loaded mesoporous particles (USP I rotating basket)
Assay type: physicochemical
Conditions: after 120 mins; pH 3.0 medium + 0.25% SLS, 900 mL, 37° C., 100 rpm, 50 mg IBU in HPMC capsule
Protocol: Testing conditions: HCL-NaCl medium pH 3+0.25% SLS, 900 mL, USP apparatus 1 (rotating basket), 100 rpm, HPLC method (mobile phase: pH 3 phosphate buffer:acetonitrile (60:40); column: C18, 15 cm×4.6 mm, 5 μm; flow rate: 2 mL/min; injection volume: 20 μL; detector: UV, 254 nm).
Dissolution testing of IBU-loaded mesoporous particles as prepared in Example 4 was performed by using USP I apparatus (rotating basket, 100 rpm) in an Erweka DT 126 dissolution tester. Samples containing 50 mg of IBU were loaded into a HPMC hard-shell capsule and tested in 900 mL of pH 3.0 medium with 0.25% SLS at 37° C. The pH 3 medium was prepared by dissolving 2 g of sodium chloride and 2.5 g of SLS in 400 mL of deionised water, then adding 0.1 mL of hydrochloric acid 37%, and diluting with deionised water to 1000.0 mL. The concentrations of dissolved IBU were determined using a HPLC method with mobile phase of phosphate buffer pH 3: acetonitrile (60:40), C18 column (15 cm×4.6 mm, 5 μm), flow rate of 2 mL/min, injection volume of 20 μL, and UV detector at 254 nm in an Agilent 1200 HPLC system.

Ibuprofen dissolved: 73.4%
SMILES: CC(C)Cc1ccc(C(C)C(=O)O)cc1 (stereo not shown) [Ibuprofen raw material, Ibuprofen]
